Molecular target: T1, SIRT1 (Homo sapiens, UniProt Q96EB6)
T1 sequence (Q96EB6 1-747): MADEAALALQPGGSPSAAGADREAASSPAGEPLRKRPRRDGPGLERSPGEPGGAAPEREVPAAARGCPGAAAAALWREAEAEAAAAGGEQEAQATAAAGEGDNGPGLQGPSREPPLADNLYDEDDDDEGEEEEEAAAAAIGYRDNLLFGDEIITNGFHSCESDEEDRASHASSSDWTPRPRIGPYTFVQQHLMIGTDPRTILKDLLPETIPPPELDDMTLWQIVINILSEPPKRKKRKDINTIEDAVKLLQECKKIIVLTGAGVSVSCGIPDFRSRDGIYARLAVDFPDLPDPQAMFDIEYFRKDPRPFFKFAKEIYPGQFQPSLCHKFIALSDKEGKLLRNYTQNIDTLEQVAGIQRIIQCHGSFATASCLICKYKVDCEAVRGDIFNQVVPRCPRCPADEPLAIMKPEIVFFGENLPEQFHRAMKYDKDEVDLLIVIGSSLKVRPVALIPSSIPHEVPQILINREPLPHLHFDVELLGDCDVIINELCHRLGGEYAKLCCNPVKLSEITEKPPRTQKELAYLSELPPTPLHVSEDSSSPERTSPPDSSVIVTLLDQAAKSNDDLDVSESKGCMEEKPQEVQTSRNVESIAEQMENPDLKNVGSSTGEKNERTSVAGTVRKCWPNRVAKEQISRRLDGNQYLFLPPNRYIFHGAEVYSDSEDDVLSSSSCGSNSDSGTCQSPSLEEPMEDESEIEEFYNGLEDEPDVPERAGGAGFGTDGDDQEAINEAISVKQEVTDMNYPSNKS
Assay: Trp mass spectrometry assay of SIRT1 activity (EC1.5, percent maximum activation)
Assay type: biochemical
Conditions: Trp mass spectrometry assay; for TRP Activity (EC1.5): EC1.5 = concentration giving 150% activation of SIRT1; for TRP MAX RESP (percent maximum fold activation): percent maximum activation of SIRT1
Outline: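 MS readout: O-acetyl-ADP-ribose (or deacetylated peptide) formed by His-tagged SIRT1 (BL21(DE3)-expressed) on 5TMR-Trp p53-based peptide, 25 min, formic acid stop. EC1.5 = concentration raising activity 50% over no-compound control; % max activation vs control = 100%.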

Row | Compound | TRP Activity (EC1.5) | TRP MAX RESP (percent maximum fold activation)
1 | Cc1cc(-c2nc3c(cc2Cl)N2CC[C@@H](C2)N3C(=O)Nc2cccc(OC[C@H](O)CO)n2)ccn1 [Example 41, (4S)-8-chloro-N-(6-((R)-2,3-dihydroxypropoxy)pyridin-2-yl)-7-(2-methylpyridin-4-yl)-3,4-dihydro-1,4-methanopyrido[2,3-b][1,4]diazepine-5(2H)-carboxamide] | B (EC1.5 1-25 μM) | A (Fold activation ≧150%)
2 | O=C(Nc1ccnc(OCCCO)n1)N1c2nc(-c3cccc(C(F)(F)F)c3)c(Cl)cc2N2CC[C@H]1C2 [Example 42, (4S)-8-chloro-N-(2-(3-hydroxypropoxy)pyrimidin-4-yl)-7-(3-(trifluoromethyl)phenyl)-3,4-dihydro-1,4-methanopyrido[2,3-b][1,4]diazepine-5(2H)-carboxamide] | A (EC1.5<1 μM) | A (Fold activation ≧150%)
3 | O=C(Nc1nccc(OC[C@H](O)CO)n1)N1c2nc(-c3cccc(C(F)(F)F)c3)c(Cl)cc2N2CC[C@H]1C2 [Example 46, (4S)-8-chloro-N-(4-((R)-2,3-dihydroxypropoxy)pyrimidin-2-yl)-7-(3-(trifluoromethyl)phenyl)-3,4-dihydro-1,4-methanopyrido[2,3-b][1,4]diazepine-5(2H)-carboxamide] | A (EC1.5<1 μM) | A (Fold activation ≧150%)
4 | Cc1cc(-c2nc3c(cc2Cl)N2CC[C@@H](C2)N3C(=O)Nc2cc(F)cc(-c3cccnc3)c2)ccn1 [Example 47, (4S)-8-chloro-N-(3-fluoro-5-(pyridin-3-yl)phenyl)-7-(2-methylpyridin-4-yl)-3,4-dihydro-1,4-methanopyrido[2,3-b][1,4]diazepine-5(2H)-carboxamide] | B (EC1.5 1-25 μM) | A (Fold activation ≧150%)
5 | CC(C)(O)CCOc1nccc(NC(=O)N2c3nc(-c4cccc(C(F)(F)F)c4)c(Cl)cc3N3CC[C@H]2C3)n1 [Example 48, (4S)-8-chloro-N-(2-(3-hydroxy-3-methylbutoxy)pyrimidin-4-yl)-7-(3-(trifluoromethyl)phenyl)-3,4-dihydro-1,4-methanopyrido[2,3-b][1,4]diazepine-5(2H)-carboxamide] | B (EC1.5 1-25 μM) | A (Fold activation ≧150%)
6 | CC(C)(CO)COc1cccc(NC(=O)N2c3nc(-c4cccc(C(F)(F)F)c4)c(Cl)cc3N3CC[C@H]2C3)n1 [Example 49, (4S)-8-chloro-N-(6-(3-hydroxy-2,2-dimethylpropoxy)pyridin-2-yl)-7-(3-(trifluoromethyl)phenyl)-3,4-dihydro-1,4-methanopyrido[2,3-b][1,4]diazepine-5(2H)-carboxamide] | B (EC1.5 1-25 μM) | A (Fold activation ≧150%)
7 | O=C(NC1CC1)N1c2nc(-c3cccc(C(F)(F)F)c3)c(Cl)cc2N2CC[C@H]1C2 [Example 52, (4S)-8-chloro-N-cyclopropyl-7-(3-(trifluoromethyl)phenyl)-3,4-dihydro-1,4-methanopyrido[2,3-b][1,4]diazepine-5(2H)-carboxamide] | A (EC1.5<1 μM) | A (Fold activation ≧150%)
8 | Cl.O=C(NC1CC1)N1c2nc(-c3cccc(C(F)(F)F)c3)c(Cl)cc2N2CC[C@H]1C2 [Example 53, (4S)-8-chloro-N-cyclopropyl-7-(3-(trifluoromethyl)phenyl)-3,4-dihydro-1,4-methanopyrido[2,3-b][1,4]diazepine-5(2H)-carboxamide Hydrochloride] | A (EC1.5<1 μM) | A (Fold activation ≧150%)
9 | Cl.O=C(Nc1ccnc(OC[C@@H](O)CO)c1)N1c2nc(-c3cccc(C(F)(F)F)c3)c(Cl)cc2N2CC[C@H]1C2 [Example 58, (4S)-8-chloro-N-(2-((S)-2,3-dihydroxypropoxy)pyridin-4-yl)-7-(3-(trifluoromethyl)phenyl)-3,4-dihydro-1,4-methanopyrido[2,3-b][1,4]diazepine-5(2H)-carboxamide, Hydrochloride] | A (EC1.5<1 μM) | A (Fold activation ≧150%)
10 | CC(C)(O)CCOc1cccc(NC(=O)N2c3nc(-c4cccc(C(F)(F)F)c4)c(Cl)cc3N3CC[C@H]2C3)n1 [Example 59, (4S)-8-chloro-N-(6-(3-hydroxy-3-methylbutoxy)pyridin-2-yl)-7-(3-(trifluoromethyl)phenyl)-3,4-dihydro-1,4-methanopyrido[2,3-b][1,4]diazepine-5(2H)-carboxamide] | B (EC1.5 1-25 μM) | A (Fold activation ≧150%)

The next lines start with the values.

Row | TRP Activity (EC1.5) | TRP MAX RESP (percent maximum fold activation) | Compound
11 | B (EC1.5 1-25 μM) | A (Fold activation ≧150%) | CC(C)(CO)COc1cncc(NC(=O)N2c3nc(-c4cccc(C(F)(F)F)c4)c(Cl)cc3N3CC[C@H]2C3)n1 [Example 43, (4S)-8-chloro-N-(6-(3-hydroxy-2,2-dimethylpropoxy)pyrazin-2-yl)-7-(3-(trifluoromethyl)phenyl)-3,4-dihydro-1,4-methanopyrido[2,3-b][1,4]diazepine-5(2H)-carboxamide]
12 | C (EC1.5>25 μM) | B (Fold Activation <150%) | Cc1cc(-c2nc3c(cc2Cl)N2CC[C@@H](C2)N3C(=O)Nc2cc(OC[C@@H](O)CO)ncn2)ccn1 [Example 44, (4S)-8-chloro-N-(6-((S)-2,3-dihydroxypropoxy)pyrimidin-4-yl)-7-(2-methylpyridin-4-yl)-3,4-dihydro-1,4-methanopyrido[2,3-b][1,4]diazepine-5(2H)-carboxamide]
13 | A (EC1.5<1 μM) | A (Fold activation ≧150%) | O=C(Nc1cncc(OC[C@@H](O)CO)n1)N1c2nc(-c3cccc(C(F)(F)F)c3)c(Cl)cc2N2CC[C@H]1C2 [Example 45, (4S)-8-chloro-N-(6-((S)-2,3-dihydroxypropoxy)pyrazin-2-yl)-7-(3-(trifluoromethyl)phenyl)-3,4-dihydro-1,4-methanopyrido[2,3-b][1,4]diazepine-5(2H)-carboxamide]
14 | A (EC1.5<1 μM) | A (Fold activation ≧150%) | O=C(Nc1ccnc(OC[C@H](O)CO)n1)N1c2nc(-c3cccc(C(F)(F)F)c3)c(Cl)cc2N2CC[C@H]1C2 [Example 50, (4S)-8-chloro-N-(2-((R)-2,3-dihydroxypropoxy)pyrimidin-4-yl)-7-(3-(trifluoromethyl)phenyl)-3,4-dihydro-1,4-methanopyrido[2,3-b][1,4]diazepine-5(2H)-carboxamide]
15 | A (EC1.5<1 μM) | A (Fold activation ≧150%) | Cl.O=C(Nc1ccnc(OC[C@H](O)CO)n1)N1c2nc(-c3cccc(C(F)(F)F)c3)c(Cl)cc2N2CC[C@H]1C2 [Example 51, (4S)-8-chloro-N-(2-((R)-2,3-dihydroxypropoxy)pyrimidin-4-yl)-7-(3-(trifluoromethyl)phenyl)-3,4-dihydro-1,4-methanopyrido[2,3-b][1,4]diazepine-5(2H)-carboxamide Hydrochloride]
16 | B (EC1.5 1-25 μM) | A (Fold activation ≧150%) | O=C(Nc1ccnc(OC2CCOCC2)n1)N1c2nc(-c3cccc(C(F)(F)F)c3)c(Cl)cc2N2CC[C@H]1C2 [Example 55, (4S)-8-chloro-N-(2-((tetrahydro-2H-pyran-4-yl)oxy)pyrimidin-4-yl)-7-(3-(trifluoromethyl)phenyl)-3,4-dihydro-1,4-methanopyrido[2,3-b][1,4]diazepine-5(2H)-carboxamide]
17 | A (EC1.5<1 μM) | A (Fold activation ≧150%) | O=C(Nc1cccc(OC[C@H](O)CO)n1)N1c2nc(-c3cccc(C(F)(F)F)c3)c(Cl)cc2N2CC[C@H]1C2 [Example 56, (4S)-8-chloro-N-(6-((R)-2,3-dihydroxypropoxy)pyridin-2-yl)-7-(3-(trifluoromethyl)phenyl)-3,4-dihydro-1,4-methanopyrido[2,3-b][1,4]diazepine-5(2H)-carboxamide]
18 | A (EC1.5<1 μM) | A (Fold activation ≧150%) | O=C(Nc1nccc(OC[C@@H](O)CO)n1)N1c2nc(-c3cccc(C(F)(F)F)c3)c(Cl)cc2N2CC[C@H]1C2 [Example 57, (4S)-8-chloro-N-(4-((S)-2,3-dihydroxypropoxy)pyrimidin-2-yl)-7-(3-(trifluoromethyl)phenyl)-3,4-dihydro-1,4-methanopyrido[2,3-b][1,4]diazepine-5(2H)-carboxamide]

From patent US20170355705A1 (GlaxoSmithKline Intellectual Property (No.2) Limited, priority 2014, published 2017)
